Measured values taken from ChEMBL document CHEMBL1201862, “PubChem BioAssay data set” (2004).
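Briefly, cells in 96-well plates were exposed to five compound concentrations for 48 h, and endpoints were estimated by linear interpolation. The concentration for 50% growth inhibition is given as GI50.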 Activity calls are given as the source filed them. Cut-off read from the data, not from the text of the source: active = GI50 up to about 1.1 µM and inactive = higher.

Experiments:
Experiment in all cases: inhibition of tumour cell growth, NCI panel, 48 h
786-0 = system: 786-0
A498 = system: A498
A549 = system: A549
ACHN = system: ACHN
BT-549 = system: BT-549
CAKI-1 = system: CAKI-1
CCRF-CEM = system: CCRF-CEM
COLO 205 = system: COLO 205
DU-145 = system: DU-145
EKVX = system: EKVX
HCC 2998 = system: HCC 2998
HCT-116 = system: HCT-116
HCT-15 = system: HCT-15
HL-60 = system: HL-60
HOP-62 = system: HOP-62
HOP-92 = system: HOP-92
HT-29 = system: HT-29
Hs-578T = system: Hs-578T
IGROV-1 = system: IGROV-1
K562 = system: K562
KM12 = system: KM12
LOX IMVI = system: LOX IMVI
M14 = system: M14
MCF7 = system: MCF7
MDA-MB-231 = system: MDA-MB-231
MDA-MB-435 = system: MDA-MB-435
MDA-N = system: MDA-N
MOLT-4 = system: MOLT-4
NCI-H226 = system: NCI-H226
NCI-H23 = system: NCI-H23
NCI-H460 = system: NCI-H460
NCI-H522 = system: NCI-H522
NCI/ADR-RES = system: NCI/ADR-RES
OVCAR-3 = system: OVCAR-3
OVCAR-4 = system: OVCAR-4
OVCAR-5 = system: OVCAR-5
OVCAR-8 = system: OVCAR-8
PC-3 = system: PC-3
RPMI-8226 = system: RPMI-8226
RXF 393 = system: RXF 393
SF-268 = system: SF-268
SF-295 = system: SF-295
SF-539 = system: SF-539
SK-MEL-28 = system: SK-MEL-28
SK-MEL-5 = system: SK-MEL-5
SN12C = system: SN12C
SNB-19 = system: SNB-19
SNB-75 = system: SNB-75
SR = system: SR
SW-620 = system: SW-620
T47D = system: T47D
TK-10 = system: TK-10
U-251 = system: U-251
UACC-257 = system: UACC-257
UACC-62 = system: UACC-62
UO-31 = system: UO-31
Malme-3M = system: Malme-3M
SK-MEL-2 = system: SK-MEL-2
SK-OV-3 = system: SK-OV-3

Measured: GI50

COc1c2ccoc2c(OC)c2oc(=O)ccc12 [ISOPIMPINELLIN]
> 100 µM: HCT-15
inactive: 786-0 > 100 µM | A498 > 100 µM | A549 > 100 µM | ACHN > 100 µM | BT-549 > 100 µM | CAKI-1 50.5 µM | CCRF-CEM > 100 µM | COLO 205 > 100 µM | DU-145 > 100 µM | EKVX 70.1 µM | HCC 2998 > 100 µM | HCT-116 > 100 µM | HL-60 > 100 µM | HOP-62 > 100 µM | HOP-92 1.99 µM | HT-29 > 100 µM | Hs-578T 62.1 µM | IGROV-1 > 100 µM | K562 > 100 µM | KM12 > 100 µM | LOX IMVI > 100 µM | M14 > 100 µM | MCF7 > 100 µM | MDA-MB-231 > 100 µM | MDA-MB-435 > 100 µM | MDA-N > 100 µM | MOLT-4 > 100 µM | NCI-H226 99.1 µM | NCI-H23 > 100 µM | NCI-H460 > 100 µM | NCI-H522 > 100 µM | NCI/ADR-RES > 100 µM | OVCAR-3 > 100 µM | OVCAR-4 > 100 µM | OVCAR-5 > 100 µM | OVCAR-8 > 100 µM | PC-3 > 100 µM | RPMI-8226 > 100 µM | RXF 393 45.8 µM | SF-268 > 100 µM | SF-295 > 100 µM | SF-539 > 100 µM | SK-MEL-28 > 100 µM | SK-MEL-5 94.4 µM | SN12C > 100 µM | SNB-19 > 100 µM | SNB-75 13.1 µM | SR > 100 µM | SW-620 > 100 µM | T47D > 100 µM | TK-10 > 100 µM | U-251 > 100 µM | UACC-257 > 100 µM | UACC-62 36.2 µM | UO-31 95.7 µM

CCC(CCCC[C@H]1CC[C@@H]2CC(=O)C[C@H]12)OC (stereo partly specified)
> 100 µM: HCT-15
inactive: 786-0 > 100 µM | A498 > 100 µM | A549 > 100 µM | ACHN > 100 µM | BT-549 50.7 µM | CAKI-1 > 100 µM | CCRF-CEM > 100 µM | COLO 205 > 100 µM | DU-145 > 100 µM | EKVX 59 µM | HCC 2998 > 100 µM | HCT-116 76 µM | HL-60 39.5 µM | HOP-62 > 100 µM | HOP-92 > 100 µM | HT-29 > 100 µM | Hs-578T > 100 µM | IGROV-1 > 100 µM | K562 25.6 µM | KM12 > 100 µM | LOX IMVI > 100 µM | M14 > 100 µM | MCF7 > 100 µM | MDA-MB-231 > 100 µM | MDA-MB-435 > 100 µM | MDA-N > 100 µM | MOLT-4 > 100 µM | Malme-3M > 100 µM | NCI-H226 > 100 µM | NCI-H23 35.2 µM | NCI-H460 > 100 µM | NCI-H522 > 100 µM | NCI/ADR-RES 66.5 µM | OVCAR-3 > 100 µM | OVCAR-4 > 100 µM | OVCAR-5 > 100 µM | OVCAR-8 > 100 µM | PC-3 > 100 µM | RPMI-8226 > 100 µM | RXF 393 > 100 µM | SF-268 > 100 µM | SF-295 > 100 µM | SF-539 > 100 µM | SK-MEL-28 > 100 µM | SK-MEL-2 > 100 µM | SK-MEL-5 31.8 µM | SK-OV-3 > 100 µM | SN12C > 100 µM | SNB-19 > 100 µM | SNB-75 59 µM | SR 51.8 µM | SW-620 > 100 µM | T47D > 100 µM | TK-10 > 100 µM | U-251 > 100 µM | UACC-257 46.5 µM | UACC-62 76 µM

O=c1c(Cc2ccc(Cc3c(O)oc4ccccc4c3=O)cc2)c(O)oc2ccccc12
inactive: A498 > 100 µM | A549 > 100 µM | BT-549 > 100 µM | CAKI-1 > 100 µM | CCRF-CEM > 100 µM | COLO 205 > 100 µM | DU-145 > 100 µM | EKVX > 100 µM | HCC 2998 > 100 µM | HCT-116 > 100 µM | HL-60 > 100 µM | HOP-62 > 100 µM | HOP-92 > 100 µM | HT-29 > 100 µM | Hs-578T > 100 µM | IGROV-1 > 100 µM | K562 > 100 µM | LOX IMVI > 100 µM | M14 > 100 µM | MCF7 > 100 µM | MDA-MB-231 > 100 µM | MDA-MB-435 > 100 µM | MDA-N > 100 µM | MOLT-4 > 100 µM | Malme-3M > 100 µM | NCI-H226 > 100 µM | NCI-H23 > 100 µM | NCI-H460 > 100 µM | NCI/ADR-RES > 100 µM | OVCAR-3 > 100 µM | OVCAR-4 > 100 µM | OVCAR-5 > 100 µM | OVCAR-8 > 100 µM | PC-3 > 100 µM | RXF 393 > 100 µM | SF-268 > 100 µM | SF-295 > 100 µM | SF-539 > 100 µM | SK-MEL-28 > 100 µM | SK-MEL-2 > 100 µM | SK-MEL-5 > 100 µM | SK-OV-3 > 100 µM | SN12C > 100 µM | SNB-75 > 100 µM | SR > 100 µM | SW-620 > 100 µM | T47D > 100 µM | TK-10 > 100 µM | U-251 > 100 µM | UACC-257 > 100 µM | UACC-62 > 100 µM | UO-31 42 µM
> 100 µM: HCT-15

Cc1ccc(C)c(COCCOCn2cc(N3CCOCC3)c(=O)[nH]c2=O)c1
> 100 µM: HCT-15
inactive: 786-0 > 100 µM | A498 > 100 µM | A549 > 100 µM | ACHN > 100 µM | BT-549 > 100 µM | CAKI-1 > 100 µM | CCRF-CEM > 100 µM | COLO 205 > 100 µM | DU-145 > 100 µM | EKVX > 100 µM | HCC 2998 > 100 µM | HCT-116 > 100 µM | HL-60 3.63 µM | HOP-92 > 100 µM | Hs-578T 54.6 µM | IGROV-1 > 100 µM | K562 > 100 µM | KM12 > 100 µM | LOX IMVI > 100 µM | M14 > 100 µM | MCF7 > 100 µM | MDA-MB-231 > 100 µM | MDA-MB-435 > 100 µM | MDA-N > 100 µM | MOLT-4 > 100 µM | Malme-3M > 100 µM | NCI-H226 > 100 µM | NCI-H23 > 100 µM | NCI-H460 > 100 µM | NCI-H522 > 100 µM | NCI/ADR-RES > 100 µM | OVCAR-5 > 100 µM | OVCAR-8 > 100 µM | PC-3 > 100 µM | RXF 393 > 100 µM | SF-268 > 100 µM | SF-295 > 100 µM | SF-539 > 100 µM | SK-MEL-28 > 100 µM | SK-MEL-2 > 100 µM | SK-OV-3 > 100 µM | SN12C > 100 µM | SNB-19 > 100 µM | SNB-75 > 100 µM | SR > 100 µM | SW-620 > 100 µM | T47D > 100 µM | TK-10 > 100 µM | U-251 > 100 µM | UACC-257 > 100 µM | UACC-62 > 100 µM | UO-31 > 100 µM

O=C(O)c1c(O)c2cc(Br)ccc2oc1=O
> 100 µM: HCT-15
inactive: 786-0 > 100 µM | A498 > 100 µM | A549 > 100 µM | ACHN > 100 µM | BT-549 > 100 µM | CAKI-1 > 100 µM | CCRF-CEM > 100 µM | COLO 205 > 100 µM | DU-145 > 100 µM | EKVX > 100 µM | HCC 2998 > 100 µM | HCT-116 > 100 µM | HL-60 > 100 µM | HOP-62 > 100 µM | HOP-92 72.1 µM | HT-29 > 100 µM | Hs-578T > 100 µM | IGROV-1 > 100 µM | K562 > 100 µM | LOX IMVI > 100 µM | M14 > 100 µM | MCF7 > 100 µM | MDA-MB-231 > 100 µM | MDA-MB-435 > 100 µM | MDA-N > 100 µM | MOLT-4 > 100 µM | Malme-3M > 100 µM | NCI-H226 > 100 µM | NCI-H23 > 100 µM | NCI-H460 > 100 µM | NCI-H522 > 100 µM | NCI/ADR-RES > 100 µM | OVCAR-3 > 100 µM | OVCAR-4 > 100 µM | OVCAR-5 > 100 µM | OVCAR-8 > 100 µM | PC-3 > 100 µM | RPMI-8226 > 100 µM | RXF 393 > 100 µM | SF-268 > 100 µM | SF-295 > 100 µM | SF-539 > 100 µM | SK-MEL-28 > 100 µM | SK-MEL-2 > 100 µM | SK-MEL-5 > 100 µM | SN12C > 100 µM | SNB-19 > 100 µM | SNB-75 > 100 µM | SR > 100 µM | SW-620 > 100 µM | T47D > 100 µM | TK-10 > 100 µM | U-251 > 100 µM | UACC-257 > 100 µM | UACC-62 > 100 µM
